What was measured:
recombinant human ACE = biological target: T1, recombinant human ACE (Homo sapiens, UniProt P12821); assay: Selectivity profile, ACE; type: biochemical; conditions: read-out: inhibition at 0.1 mM, ACE
T1 construct: purchased R&D Systems Inc
Description: (§1) Inhibitory activity was tested in reaction mixtures (0.1 ml) containing 2% (v/v) DMSO vehicle±compound plus additions as follows. V8 protease: 90 mM MOPS (sodium) buffer pH 7.0, […] calcium chloride, 0.045% Brij 35, 10 μM Mca-Leu-Glu-Val-Asp-Gly-Trp-Lys(Dnp)-amide (Bachem) and V8 (BioCentrum Ltd; 30 ng). Staphopain A and B: 90 mM MOPS (sodium) buffer pH 7.0, 1.8 mM cysteine-HCl (pH-adjusted with NaOH), 0.045% Brij 35, 0.1 mM Z-Phe-Arg-AMC hydrochloride (Bachem) and staphopain A or B (BioCentrum Ltd; 30 ng). Human kallikrein 5: 0.1M sodium phosphate buffer pH 8.0, 0.045% Brij 35, 0.1 mM Boc-Val-Pro-Arg-AMC (Sigma) and recombinant human kallikrein 5 (R&D Systems Inc; 6 ng). Human kallikrein 7: 72 mM Tris-HCl pH 8.0, 0.033% Brij 35, 1.2 mM S-2586 (Chromogenix Instrumentation Laboratory SpA) and recombinant human kallikrein 7 (R&D Systems Inc; 0.6 μg) that had been thermolysin-activated according to the manufacturer's instructions. Human angiotensin-converting enzyme (ACE): 45 mM MES (sodium) buffer pH 6.5, 0.045% Brij 35, 10 μM Mca-[…]Dnp)-OH(R&D Systems Inc) and recombinant human ACE (R&D Systems Inc; 1.3 ng). Human cathepsin D: 0.1M sodium acetate buffer pH 3.5, 0.2M sodium chloride, 0.045% Brij 35, 10 μM Mca-Pro-Leu-Gly-Leu-Dap(Dnp)-Ala-Arg-amide (Bachem) and recombinant human cathepsin D (R&D Systems Inc; 8 ng) activated according to the manufacturer's instructions. […]

[1] = tested on: Cysteine protease in S. aureus 8325-4 culture supernatant; assay: Cysteine protease activity in supernatant of S. aureus grown with compound; type: cell-based, Staphylococcus aureus
Description: (§2) Duplicate samples of brain heart infusion medium (5 ml; Becton Dickinson and Co.) containing 10% skimmed milk and 2% (v/v) DMSO vehicle±Compound 12 were inoculated with S. aureus 8325-4 (approximately 10^7 cells in tryptic soy broth) and incubated for 16 h at 37° C./220 rpm. Cultures were centrifuged to remove bacteria and the culture supernatants stored at −70° C. pending analysis of protease activity.
(§3) Enzyme activities were measured in mixtures containing 90 mM MOPS (sodium) buffer pH 7.0 (0.1 ml), 0.045% Brij 35, 2% (v/v) DMSO vehicle±Compound 12 and culture supernatant (4 μl). The concentration of compound used was the same as that which had been used to culture the assayed sample. Further additions to the reaction mixtures were as follows. Aureolysin assay: 4.5 mM calcium chloride, 9 μM E-64 (to inhibit cysteine protease activity) and 10 μM Mca-Pro-Leu-Gly-Leu-Dap(Dnp)-Ala-Arg-amide (Bachem); V8 protease assay: 10 μM Mca-Leu-Glu-Val-Asp-Gly-Trp-Lys(Dnp)-amide (Bachem); cysteine protease assay: 1.8 mM cysteine-HCl (pH-adjusted with NaOH), 9 mM EDTA and 0.1 mM Z-Phe-Arg-AMC hydrochloride (Bachem). The rate of product formation at 37° C. was monitored over 6 h taking readings at 15 min intervals using a POLARstar OPTIMA plate reader (BMG LABTECH Ltd) with 320 nm excitation/405 nm emission for aureolysin and V8 assays and 390 nm excitation/460 nm emission for the cysteine protease assay. Enzyme activities were determined from the linear rate of fluorescence increase and converted to percent inhibition by reference to vehicle control samples.

[2] = biological target: T2, recombinant human kallikrein 7 (Homo sapiens, UniProt P49862); assay: Selectivity profile, kallikrein 7; type: biochemical; conditions: read-out: inhibition at 0.1 mM, Kallikrein 7
T2 construct: purchased R&D Systems Inc
T2 sequence (P49862 30-253): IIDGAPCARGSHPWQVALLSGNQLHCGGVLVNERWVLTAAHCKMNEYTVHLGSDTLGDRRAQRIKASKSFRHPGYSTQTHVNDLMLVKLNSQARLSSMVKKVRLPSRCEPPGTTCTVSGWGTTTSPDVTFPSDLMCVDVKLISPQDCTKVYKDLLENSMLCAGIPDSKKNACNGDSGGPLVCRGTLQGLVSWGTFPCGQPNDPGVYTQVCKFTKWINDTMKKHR
Description: as §1

[3] = tested on: V8 protease in S. aureus 8325-4 culture supernatant; assay: V8 protease activity in supernatant of S. aureus grown with compound; type: cell-based, Staphylococcus aureus
Description: as §2, §3

[4] = tested on: protease activity in skin wash samples from patients with acute AD; assay: Protease activity in skin wash samples, fluorogenic enzyme assay; type: biochemical, human
Description: A method has been developed to evaluate protease activity in skin washings. Skin washings from patients with acute eczema may be obtained by aspirating 0.5 ml sterile physiological saline over the skin surface using a sterile, disposable plastic Pasteur pipette The skin area ( 1 cm^2) is defined by a sterile open-ended plastic cylinder. […] Samples were incubated at 37° C. in a POLARstar Optima plate reader (BMG Labtech Ltd.) and fluorescence readings (320 nm excitation/405 nm emission) taken every 15 min for 6 h. Activity was expressed as the rate of increase in fluorescence as a function of time.

[5] = Compound 12 40 μM in culture and assay
[6] = Compound 12 79 μM in culture and assay
[7] = Compound 12 159 μM in culture and assay
[8] = Compound 12 317 μM in culture and assay

T1 sequence (P12821 30-1306): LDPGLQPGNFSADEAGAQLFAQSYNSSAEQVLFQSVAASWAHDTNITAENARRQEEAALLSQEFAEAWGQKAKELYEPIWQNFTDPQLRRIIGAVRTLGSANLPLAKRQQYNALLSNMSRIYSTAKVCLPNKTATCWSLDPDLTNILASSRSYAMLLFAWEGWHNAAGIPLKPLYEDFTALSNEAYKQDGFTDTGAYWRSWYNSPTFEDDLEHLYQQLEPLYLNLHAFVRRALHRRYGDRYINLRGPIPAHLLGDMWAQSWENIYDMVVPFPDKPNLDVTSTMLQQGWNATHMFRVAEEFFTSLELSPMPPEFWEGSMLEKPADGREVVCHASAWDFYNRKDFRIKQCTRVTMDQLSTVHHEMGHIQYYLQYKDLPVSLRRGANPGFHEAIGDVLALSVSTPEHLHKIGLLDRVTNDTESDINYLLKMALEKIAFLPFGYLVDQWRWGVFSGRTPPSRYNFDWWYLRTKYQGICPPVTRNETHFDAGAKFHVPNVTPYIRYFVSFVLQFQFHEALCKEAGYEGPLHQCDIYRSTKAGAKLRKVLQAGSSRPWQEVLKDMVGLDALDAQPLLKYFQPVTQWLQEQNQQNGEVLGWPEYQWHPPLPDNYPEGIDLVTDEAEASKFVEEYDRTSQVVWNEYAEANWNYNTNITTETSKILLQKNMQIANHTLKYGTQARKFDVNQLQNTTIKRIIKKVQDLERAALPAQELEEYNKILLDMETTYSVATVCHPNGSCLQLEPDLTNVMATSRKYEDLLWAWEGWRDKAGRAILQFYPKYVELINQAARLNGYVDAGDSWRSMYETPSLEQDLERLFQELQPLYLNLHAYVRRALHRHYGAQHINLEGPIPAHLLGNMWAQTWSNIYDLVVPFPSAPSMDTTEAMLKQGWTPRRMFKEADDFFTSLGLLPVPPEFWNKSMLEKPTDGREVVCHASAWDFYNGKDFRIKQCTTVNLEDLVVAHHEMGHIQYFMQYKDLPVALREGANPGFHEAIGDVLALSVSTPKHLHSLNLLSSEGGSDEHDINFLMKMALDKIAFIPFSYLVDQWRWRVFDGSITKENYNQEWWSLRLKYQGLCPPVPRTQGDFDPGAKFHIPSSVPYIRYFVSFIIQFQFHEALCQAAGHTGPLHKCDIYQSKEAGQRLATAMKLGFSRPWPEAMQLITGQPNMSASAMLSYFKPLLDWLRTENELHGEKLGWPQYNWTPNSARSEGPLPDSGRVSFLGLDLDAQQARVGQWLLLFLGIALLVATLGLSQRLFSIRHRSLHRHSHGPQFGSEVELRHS

In the case of CNC(=O)[C@@H](NC(=O)[C@H](CC(=O)NO)CC(C)C)C(C)(C)C [Compound 12, (S)—N1-((S)-3,3-dimethyl-1-(methylamino)-1-oxobutan-2-yl)-N4-hydroxy-2-isobutylsuccinamide], the inhibition at 100 µM (recombinant human ACE) is reported as 0%, the “Inhibition (%) Cysteine protease” value [1, 5] is reported as 27% and the “Inhibition (%) Cysteine protease” value [1, 6] is reported as 53%. For the same compound, the “Inhibition (%) Cysteine protease” value [1, 7] was 78%, the “Inhibition (%) Cysteine protease” value [1, 8] was 87% and the inhibition at 100 µM [2] was 0%. For the same compound, the “Inhibition (%) V8 protease” value [3, 5] was 83%, the “Inhibition (%) V8 protease” value [3, 6] was 91% and the “Inhibition (%) V8 protease” value [3, 7] was 97%. For the same compound, the “Inhibition (%) V8 protease” value [3, 8] was 99%.

With CNC(=O)[C@@H](NC(=O)[C@@H](CC(=O)NO)CC(C)C)C(C)(C)C [Compound 11, (R)—N1-((S)-3,3-dimethyl-1-(methylamino)-1-oxobutan-2-yl)-N4-hydroxy-2-isobutylsuccinamide] the “inhibition of protease activity in skin wash samples (in words)” value ([4]; 50 μM, fluorogenic assay, AD patients) was “significant inhibition of protease activity”, the “% Inhibition protease activity with compound 11” value (from here on “% Inhibition protease activity”) ([4]; 50 μM, skin wash sample 5) was 100% and the “% Inhibition protease activity” value ([4]; 50 μM, skin wash sample 7) was 48.7%. For the same compound, the “% Inhibition protease activity” value ([4]; 50 μM, skin wash sample 14) was 88.5%, the “% Inhibition protease activity” value ([4]; 50 μM, skin wash sample 17) was 96.4% and the “% Inhibition protease activity” value ([4]; 50 μM, skin wash sample 18) was 75.6%. The “% Inhibition protease activity” value ([4]; 50 μM, skin wash sample 21) was 85.1%, the “% Inhibition protease activity” value ([4]; 50 μM, skin wash sample 26) was 85.3% and the “% Inhibition protease activity” value ([4]; 50 μM, skin wash sample 30) was 100%. For the same compound, the “% Inhibition protease activity” value ([4]; 50 μM, skin wash sample 36) was 95.3%, the “% Inhibition protease activity” value ([4]; 50 μM, skin wash sample 37) was 81.8% and the “% Inhibition protease activity” value ([4]; 50 μM, skin wash sample 39) was 100%. The “% Inhibition protease activity” value ([4]; 50 μM, skin wash sample 40) was 85.6%, the “% Inhibition protease activity” value ([4]; 50 μM, skin wash sample 43) was 91.8% and the “% Inhibition protease activity” value ([4]; 50 μM, skin wash sample 48) was 96.9%. The “Protease activity with 50 μM compound 11” value ([4]; skin wash sample 5) was 0 FIU/min/μl, the “Protease activity with 50 μM compound 11” value ([4]; skin wash sample 7) was 0.271 FIU/min/μl and the “Protease activity with 50 μM compound 11” value ([4]; skin wash sample 14) was 0.0761 FIU/min/μl. For the same compound, the “Protease activity with 50 μM compound 11” value ([4]; skin wash sample 17) was 0.123 FIU/min/μl, the “Protease activity with 50 μM compound 11” value ([4]; skin wash sample 18) was 0.0674 FIU/min/μl and the “Protease activity with 50 μM compound 11” value ([4]; skin wash sample 21) was 0.0302 FIU/min/μl. For the same compound, the “Protease activity with 50 μM compound 11” value ([4]; skin wash sample 24 (activity without compound 0)) was 0.00122 FIU/min/μl, the “Protease activity with 50 μM compound 11” value ([4]; skin wash sample 26) was 0.0554 FIU/min/μl and the “Protease activity with 50 μM compound 11” value ([4]; skin wash sample 30) was 0 FIU/min/μl. For the same compound, the “Protease activity with 50 μM compound 11” value ([4]; skin wash sample 36) was 0.0173 FIU/min/μl, the “Protease activity with 50 μM compound 11” value ([4]; skin wash sample 37) was 0.126 FIU/min/μl and the “Protease activity with 50 μM compound 11” value ([4]; skin wash sample 39) was 0 FIU/min/μl. For the same compound, the “Protease activity with 50 μM compound 11” value ([4]; skin wash sample 40) was 0.103 FIU/min/μl, the “Protease activity with 50 μM compound 11” value ([4]; skin wash sample 43) was 0.0814 FIU/min/μl and the “Protease activity with 50 μM compound 11” value ([4]; skin wash sample 48) was 0.0287 FIU/min/μl.

From patent US20070049518A1, “Novel method of treatment of inflammatory skin conditions” (priority 2005, published 2007)
